# Laboratory results reported in US8236789B2, “1-adamantyl azetidin-2-one derivatives and drugs containing same” (Kowa Company, Ltd., priority 2008, dated 2012).
# Key:
# Assay type in all cases: biochemical
# human 11β-HSD1 = target: T1, human 11β-HSD1 (Homo sapiens, UniProt P28845); assay: Enzyme inhibitory activity assay, lysate of HEK293 cells stably expressing human 11β-HSD1, cortisol by competitive ELISA; conditions: Table 1; cell lysate, 100 nmol/L cortisone, NADPH, 37° C. 1 hour; read-out: in vitro assay (IC50 uM) h HSD1
# T1 construct: expressed in transfected cells
# T1 sequence (P28845 whole entry): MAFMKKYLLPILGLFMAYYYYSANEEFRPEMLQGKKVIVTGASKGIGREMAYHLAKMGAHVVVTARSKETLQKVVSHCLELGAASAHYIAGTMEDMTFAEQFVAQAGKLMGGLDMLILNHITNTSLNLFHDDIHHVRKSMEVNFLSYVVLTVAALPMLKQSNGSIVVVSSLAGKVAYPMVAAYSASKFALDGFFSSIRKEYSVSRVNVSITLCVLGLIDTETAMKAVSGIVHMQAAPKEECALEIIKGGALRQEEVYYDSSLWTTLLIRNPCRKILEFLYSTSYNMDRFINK
# Method: (§1) 1. Human 11β-HSD1-, Human 11β-HSD2- and Mouse 11β-HSD1-Gene Clonings and Establishment of Stably Expressing Cells
# (§2) Human 11β-HSD1- and human 11β-HSD2-expressing vectors were transfected into human kidney-derived cell line, HEK293 cells, using a transfection reagent, jet PEI (Funakoshi). Mouse 11β-HSD1 was transfected to Chinese hamster ovary-derived cell line, CHO-K1 cells. Selection was conducted with 200-400 μg/mL of zeocine (Invitrogen) to provide stably expressing-cell clones. The stably expressing cells were suspended in buffer solution A (20 mmol/L Tris-HCl, pH 7.4, 250 mmol/L sucrose, 1 mmol/L EGTA, 1 mmol/L EDTA, 1 mmol/L MgCl2), sonicated, and then stored at −80° C.
# (§3) 2. Assay of Enzyme Inhibitory Activity
# (§4) An enzymatic reaction was conducted using a polystyrene 96-well plate. Each well was added with 1 μL of a test agent dissolved in DMSO and then diluted (0.003 to 3 mmol/L), and further added with 10 μL of cell lysate diluted to a concentration of 0.1 mg/mL to 0.4 mg/mL. Next, 90 μL of buffer solution A containing substrate (100 nmol/L cortisone or cortisol) and coenzyme (400 μmol/L NADPH or NAD+) was added and the mixture was incubated at 37° C. for 1 hour. The enzymatic reaction was stopped by treating at 95° C. for 3 minutes. Cortisol that was present in the reaction solution was determined by a competitive ELISA shown below.
# (§5) Anti-rabbit IgG antibody (Chemi-con) diluted to 2 μg/mL with carbonate buffer solution (pH 9.6) was added in 100 μL each to a 96-well immuno plate (Nunc) and immobilized by an incubation at 4° C. overnight. […] After washed three times with buffer solution B containing 0.05% Tween 20, the plates were allowed to develop color by adding 100 μL, of color reagent, TMB (Moss). The color reaction was stopped by 25 μL of 1 mol/L sulfuric acid and the absorbance was determined at 450 nm with a microplate reader (Molecular Device, VersaMax).
# human 11β-HSD2 = target: T2, human 11β-HSD2 (Homo sapiens, UniProt P80365); assay: Enzyme inhibitory activity assay, lysate of HEK293 cells stably expressing human 11β-HSD2, cortisol by competitive ELISA; conditions: Table 1; cell lysate, 100 nmol/L cortisol, NAD+, 37° C. 1 hour; read-out: in vitro assay (IC50 uM) h HSD2
# T2 construct: expressed in transfected cells
# T2 sequence (P80365 1-405): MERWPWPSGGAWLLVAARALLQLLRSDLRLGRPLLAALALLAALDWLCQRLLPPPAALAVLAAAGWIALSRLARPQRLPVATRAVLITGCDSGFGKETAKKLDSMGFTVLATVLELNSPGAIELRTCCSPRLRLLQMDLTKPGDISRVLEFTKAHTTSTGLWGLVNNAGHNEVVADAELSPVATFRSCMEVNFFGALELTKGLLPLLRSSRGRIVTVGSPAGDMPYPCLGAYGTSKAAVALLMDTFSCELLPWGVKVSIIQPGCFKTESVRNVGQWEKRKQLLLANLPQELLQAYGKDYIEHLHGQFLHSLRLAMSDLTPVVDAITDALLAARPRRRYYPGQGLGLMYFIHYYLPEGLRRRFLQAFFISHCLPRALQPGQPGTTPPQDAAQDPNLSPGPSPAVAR
# Method: as §1
# Human 11β-HSD1-, human 11β-HSD2-, and mouse 11β-HSD1-gene clonings were conducted using as a template a reverse transcription product of human-liver RNA, human-kidney RNA (CELL APPLICATIONS), and mouse-kidney RNA respectively, by means of PCR cloning with reference to nucleotide sequences of Genbank Accession Nos. NM_005525, NM_000196, and NM_008288. The obtained PCR products of about 0.9 kbp, 1.2 kbp, and 0.9 kbp were subcloned into an expression vector pcDNA3.1+/Zeo (Invitrogen).
# as §2, §3, §4
# Anti-rabbit IgG antibody (Chemi-con) diluted to 2 μg/mL with carbonate buffer solution (pH 9.6) was added in 100 μL each to a 96-well immuno plate (Nunc) and immobilized by an incubation at 4° C. overnight. 50 μL of enzymatic reaction solution was put onto the plates, and further, anti-cortisol antibody (Cosmo Bio) and HRP-labeled cortisol (Cosmo Bio), diluted with buffer solution B (25 mmol/L Tris-HCl pH 7.4, 137 mmol/L NaCl, 2.68 mmol/L KCl), were added in 50 μL respectively and incubated at 4° C. overnight. After washed three times with buffer solution B containing 0.05% Tween 20, the plates were allowed to develop color by adding 100 μL, of color reagent, TMB (Moss). The color reaction was stopped by 25 μL of 1 mol/L sulfuric acid and the absorbance was determined at 450 nm with a microplate reader (Molecular Device, VersaMax).
# The values of human 11β-HSD1, human 11β-HSD2, and mouse 11β-HSD1 activities were subtracted from 100, and the resultant values were regarded as the respective 11βHSD inhibition rates of example compounds. […] The comparison of human 11β-HSD1 and human 11β-HSD2 inhibiting activities is shown in Table 1, and the comparison of human 11β-HSD1 and mouse 11β-HSD1 inhibiting activities is shown in Table 2.
# mouse 11β-HSD1 = target: T3, mouse 11β-HSD1 (Mus musculus, UniProt P50172); assay: Enzyme inhibitory activity assay, lysate of CHO-K1 cells stably expressing mouse 11β-HSD1, cortisol by competitive ELISA; conditions: Table 2; cell lysate, 100 nmol/L cortisone, NADPH, 37° C. 1 hour; read-out: in vitro assay (IC50 uM) m HSD1
# T3 construct: expressed in transfected cells
# T3 sequence (P50172 whole entry): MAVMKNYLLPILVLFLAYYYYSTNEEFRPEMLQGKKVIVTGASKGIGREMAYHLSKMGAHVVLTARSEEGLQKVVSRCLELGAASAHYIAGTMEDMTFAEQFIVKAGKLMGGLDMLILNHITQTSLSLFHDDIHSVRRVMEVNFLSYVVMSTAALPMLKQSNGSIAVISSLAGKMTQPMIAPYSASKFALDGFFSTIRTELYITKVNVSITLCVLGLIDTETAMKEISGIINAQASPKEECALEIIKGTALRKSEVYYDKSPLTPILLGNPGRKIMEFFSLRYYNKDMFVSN
# Method: as §1, §2, §3, §4, §5
IC50 (human 11β-HSD1) [µM],IC50 (human 11β-HSD2) [µM],IC50 (mouse 11β-HSD1) [µM],Structure (SMILES)
0.013,3 to 30,0.077,"CC1(C)C(=O)N(C2C3CC4CC(C3)CC2C4)C1c1ccccc1 (centres unmarked) [Example 1, 1-(adamantan-2-yl)-3,3-dimethyl-4-phenylazetidin-2-one]"
0.0034,3 to 30,0.055,"CC1(C)C(=O)N(C2C3CC4CC(C3)CC2C4)C1c1ccccc1F (centres unmarked) [Example 39, 1-(adamantan-2-yl)-3,3-dimethyl-4-(2-fluorophenyl)azetidin-2-one]"
0.013,> 30,0.46,"CC1(C)C(=O)N(C2C3CC4CC(C3)CC2C4)C1c1ccc(Cl)c(Cl)c1 (centres unmarked) [Example 26, 1-(adamantan-2-yl)-3,3-dimethyl-4-(3,4-dichlorophenyl)azetidin-2-one]"
0.02,0.28,0.0051,"CC1(C)C(=O)N(C2C3CC4CC(C3)CC2C4)C1Cc1ccccc1 (centres unmarked) [Example 69, 4-benzyl-1-(adamantan-2-yl)-3,3-dimethylazetidin-2-one]"
0.011,> 30,0.59,"CC1(C)C(=O)N(C2C3CC4CC(C3)CC2C4)C1c1ccc(F)c(Cl)c1 (centres unmarked) [Example 29, 1-(adamantan-2-yl)-3,3-dimethyl-4-(3-chloro-4-fluorophenyl)azetidin-2-one]"
0.0059,> 30,0.34,"COc1ccc(C2N(C3C4CC5CC(C4)CC3C5)C(=O)C2(C)C)c(F)c1 (centres unmarked) [Example 40, 1-(adamantan-2-yl)-3,3-dimethyl-4-(2-fluoro-4-methoxyphenyl)azetidin-2-one]"
0.0087,3 to 30,0.079,"CC1(C)C(=O)N(C2C3CC4CC(C3)CC2C4)C1c1ccccc1C(F)(F)F (centres unmarked) [Example 41, 1-(adamantan-2-yl)-3,3-dimethyl-4-(2-trifluoromethylphenyl)azetidin-2-one]"
0.0067,6.7,0.072,"COc1ccccc1C1N(C2C3CC4CC(C3)CC2C4)C(=O)C1(C)C (centres unmarked) [Example 33, 1-(adamantan-2-yl)-3,3-dimethyl-4-(2-methoxyphenyl)azetidin-2-one]"
0.011,> 30,0.1,"CC1(C)C(=O)N(C2C3CC4CC(C3)CC2C4)C1c1cccc(F)c1F (centres unmarked) [Example 24, 1-(adamantan-2-yl)-3,3-dimethyl-4-(2,3-difluorophenyl)azetidin-2-one]"
0.0095,15,0.66,"CC1(C)C(=O)N(C2C3CC4CC(C3)CC2C4)C1c1ccc(Cl)cc1 (centres unmarked) [Example 22, 1-(adamantan-2-yl)-3,3-dimethyl-4-(4-chlorophenyl)azetidin-2-one]"
0.0079,> 30,0.46,"COc1ccc(C2N(C3C4CC5CC(C4)CC3C5)C(=O)C2(C)C)c(C)c1 (centres unmarked) [Example 56, 1-(adamantan-2-yl)-3,3-dimethyl-4-(4-methoxy-2-methylphenyl)azetidin-2-one]"
0.0055,3 to 30,0.076,"CC1(C)C(=O)N(C2C3CC4CC(C3)CC2C4)C1c1ccccc1Cl (centres unmarked) [Example 44, 1-(adamantan-2-yl)-3,3-dimethyl-4-(2-chlorophenyl)azetidin-2-one]"

# Second part, the compound before the results:
Structure (SMILES),IC50 (human 11β-HSD1) [µM],IC50 (human 11β-HSD2) [µM],IC50 (mouse 11β-HSD1) [µM]
"CC1(C)C(=O)N(C2C3CC4CC(C3)CC2C4)C1c1cc(F)cc(F)c1F (centres unmarked) [Example 35, 1-(adamantan-2-yl)-3,3-dimethyl-4-(2,3,5-trifluorophenyl)azetidin-2-one]",0.053,> 30,0.61
"CC(C)c1ccc(C2N(C3C4CC5CC(C4)CC3C5)C(=O)C2(C)C)cc1 (centres unmarked) [Example 37, 1-(adamantan-2-yl)-3,3-dimethyl-4-(4-isopropylphenyl)azetidin-2-one]",0.026,14,
"COc1ccc(C2N(C3C4CC5CC(C4)CC3C5)C(=O)C2(C)C)cc1 (centres unmarked) [Example 23, 1-(adamantan-2-yl)-3,3-dimethyl-4-(4-methoxyphenyl)azetidin-2-one]",0.01,> 30,
"CC1(C)C(=O)N(C2C3CC4CC(C3)CC2C4)C1C1(c2ccccc2)CC1 (centres unmarked) [Example 71, 1-(adamantan-2-yl)-3,3-dimethyl-4-(1-phenylcyclopropyl)azetidin-2-one]",0.059,4.3,0.0061
"CC(C)(C)c1ccc(C2N(C3C4CC5CC(C4)CC3C5)C(=O)C2(C)C)cc1 (centres unmarked) [Example 38, 1-(adamantan-2-yl)-3,3-dimethyl-4-(4-t-butylphenyl)azetidin-2-one]",0.079,3 to 30,
"CC1(C)C(=O)N(C2C3CC4CC(C3)CC2C4)C1c1ccc(F)c(F)c1 (centres unmarked) [Example 27, 1-(adamantan-2-yl)-3,3-dimethyl-4-(3,4-difluorophenyl)azetidin-2-one]",0.017,8.8,
"CC1(C)C(=O)N(C2C3CC4CC(C3)CC2C4)C1C1(c2ccc(Cl)cc2)CC1 (centres unmarked) [Example 70, 4-[1-(4-chlorophenyl)cyclopropyl]-1-(adamantan-2-yl)-3,3-dimethylazetidin-2-one]",0.11,4.1,0.0078
"CC1(C)C(=O)N(C2C3CC4CC(C3)CC2C4)C1c1cccc2c1OCCCC2 (centres unmarked) [Example 68, 1-(adamantan-2-yl)-3,3-dimethyl-4-(benzo[b]oxepan-9-yl)azetidin-2-one]",0.026,3 to 30,0.02
